Source: patent US20260242419A1, “A CYCLIC PEPTIDE FOR TRAPPING INTERLEUKIN-1 BETA” (Merck Sharp & Dohme LLC, priority 2023, published 2026)
Non-standard residues stand in square brackets, D forms with d. Residues, ends and D or L forms follow the SMILES beside them. dPro(4R-(4-pyridylmethyl)) = O=C(O)[C@H]1C[C@@H](Cc2ccncc2)CN1; dPro(3S-(4-Br-benzyl)) = O=C(O)[C@@H]1NCC[C@@H]1Cc1ccc(Br)cc1; Trp(βS-Me,4-F) = C[C@@H](c1c[nH]c2cccc(F)c12)[C@H](N)C(=O)O; Bip(4'-COOH) = N[C@@H](Cc1ccc(-c2ccc(C(=O)O)cc2)cc1)C(=O)O; Ala(1-bicyclo(1.1.1)pentyl) = N[C@@H](CC12CC(C1)C2)C(=O)O; 1Nal(3S-Me) = C[C@@H](c1cccc2ccccc12)[C@H](N)C(=O)O; Ala(pyrimidin-5-yl) = N[C@@H](Cc1cncnc1)C(=O)O; Phe(4-COOH) = N[C@@H](Cc1ccc(C(=O)O)cc1)C(=O)O; Pro(cis-4-F) = O=C(O)[C@@H]1C[C@H](F)CN1; cisHyp = O=C(O)[C@@H]1C[C@H](O)CN1; d(αMeD) = C[C@@](N)(CC(=O)O)C(=O)O; 4Pal = N[C@@H](Cc1ccncc1)C(=O)O; Dab = NCC[C@H](N)C(=O)O; Aib = CC(C)(N)C(=O)O

target: T1, IL-1β (Homo sapiens, UniProt P01584); experiment: IL-6 assay in MRC5 cells: inhibition of IL-1β induced IL-6 secretion (AlphaLISA); type: cell-based; conditions: inhibition of IL-1β induced IL-6 secretion in MRC5 cells; read-out: MRC5 IC50
T1 construct: purchased BioLegend 579404
T1 sequence (P01584 117-269): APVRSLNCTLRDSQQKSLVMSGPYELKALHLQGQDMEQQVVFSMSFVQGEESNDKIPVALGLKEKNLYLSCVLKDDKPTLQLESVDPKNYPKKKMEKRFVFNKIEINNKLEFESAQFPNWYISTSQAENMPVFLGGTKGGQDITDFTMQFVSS
Method in brief: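 Compound was pre-incubated 1 h at ambient temperature with recombinant human IL-1β at 2λ EC80 before adding human lung fibroblast MRC5 cells (3000/well) in EMEM with 0.025% BSA. After overnight culture at 37 °C, 5% CO2, secreted IL-6 in conditioned medium was measured by AlphaLISA; IC50 from 4-parameter logistic fits.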

SMILES | IC50 [nM]
C[C@@H](c1c[nH]c2cccc(F)c12)[C@@H]1NC(=O)[C@@H]2C[C@H](F)CN2C(=O)CNC(=O)[C@H](Cc2ccc(C(=O)O)cc2)NC(=O)[C@H](Cc2ccncc2)NC(=O)[C@H](Cc2ccc(-c3ccc(C(=O)O)cc3)cc2)NC(=O)[C@H]2[C@@H](Cc3ccc(Br)cc3)CCN2C(=O)CNC(=O)[C@H](CCCCN)NC(=O)[C@H](CCC(N)=O)NC(=O)[C@H](Cc2cncnc2)NC(=O)C(C)(C)NC(=O)[C@H](Cc2c[nH]c3ccccc23)NC(=O)[C@H](CCC(=O)O)NC(=O)C(C)(C)NC1=O [Example 152] (cyclo([Bip(4'-COOH)][4Pal][Phe(4-COOH)]G[Pro(cis-4-F)][Trp(βS-Me,4-F)][Aib]EW[Aib][Ala(pyrimidin-5-yl)]QKG[dPro(3S-(4-Br-benzyl))])) | 0.031
C[C@@H](c1cccc2ccccc12)[C@@H]1NC(=O)[C@@H]2C[C@H](F)CN2C(=O)CNC(=O)[C@H](Cc2ccc(C(=O)O)cc2)NC(=O)[C@H](Cc2ccncc2)NC(=O)[C@H](Cc2ccc(-c3ccc(C(=O)O)cc3)cc2)NC(=O)[C@H]2[C@@H](Cc3ccc(Br)cc3)CCN2C(=O)CNC(=O)[C@H](CCN)NC(=O)[C@H](CCC(N)=O)NC(=O)[C@H](Cc2cncnc2)NC(=O)C(C)(C)NC(=O)[C@H](Cc2c[nH]c3ccccc23)NC(=O)[C@H](CCC(=O)O)NC(=O)C(C)(C)NC1=O [Example 153] (cyclo([Bip(4'-COOH)][4Pal][Phe(4-COOH)]G[Pro(cis-4-F)][1Nal(3S-Me)][Aib]EW[Aib][Ala(pyrimidin-5-yl)]Q[Dab]G[dPro(3S-(4-Br-benzyl))])) | 0.019
C[C@@H](c1c[nH]c2cccc(F)c12)[C@@H]1NC(=O)[C@@H]2C[C@H](F)CN2C(=O)CNC(=O)[C@H](Cc2ccc(C(=O)O)cc2)NC(=O)[C@H](Cc2ccncc2)NC(=O)[C@H](Cc2ccc(-c3ccc(C(=O)O)cc3)cc2)NC(=O)[C@H]2C[C@@H](Cc3ccncc3)CN2C(=O)CNC(=O)[C@H](CCN)NC(=O)[C@H](CCC(N)=O)NC(=O)[C@H](Cc2cncnc2)NC(=O)[C@@](C)(CC(=O)O)NC(=O)[C@H](Cc2c[nH]c3ccccc23)NC(=O)[C@H](CO)NC(=O)C(C)(C)NC1=O [Example 154] (cyclo([Bip(4'-COOH)][4Pal][Phe(4-COOH)]G[Pro(cis-4-F)][Trp(βS-Me,4-F)][Aib]SW[d(αMeD)][Ala(pyrimidin-5-yl)]Q[Dab]G[dPro(4R-(4-pyridylmethyl))])) | 0.011
C[C@@H](c1c[nH]c2cccc(F)c12)[C@@H]1NC(=O)[C@@H]2C[C@H](F)CN2C(=O)CNC(=O)[C@H](Cc2ccc(C(=O)O)cc2)NC(=O)[C@H](CC23CC(C2)C3)NC(=O)[C@H](Cc2ccc(-c3ccc(C(=O)O)cc3)cc2)NC(=O)[C@H]2C[C@@H](Cc3ccncc3)CN2C(=O)CNC(=O)[C@H](CCN)NC(=O)[C@H](CCC(N)=O)NC(=O)[C@H](Cc2cncnc2)NC(=O)[C@@](C)(CC(=O)O)NC(=O)[C@H](Cc2c[nH]c3ccccc23)NC(=O)[C@H](CO)NC(=O)C(C)(C)NC1=O [Example 155] (cyclo([Bip(4'-COOH)][Ala(1-bicyclo(1.1.1)pentyl)][Phe(4-COOH)]G[Pro(cis-4-F)][Trp(βS-Me,4-F)][Aib]SW[d(αMeD)][Ala(pyrimidin-5-yl)]Q[Dab]G[dPro(4R-(4-pyridylmethyl))])) | 0.011
C[C@@H](c1c[nH]c2cccc(F)c12)[C@@H]1NC(=O)[C@@H]2C[C@H](F)CN2C(=O)CNC(=O)[C@H](Cc2ccc(C(=O)O)cc2)NC(=O)[C@H](Cc2ccncc2)NC(=O)[C@H](Cc2ccc(-c3ccc(C(=O)O)cc3)cc2)NC(=O)[C@H]2C[C@@H](Cc3ccncc3)CN2C(=O)CNC(=O)[C@H](CO)NC(=O)[C@H](CCC(N)=O)NC(=O)[C@H](Cc2cncnc2)NC(=O)[C@@](C)(CC(=O)O)NC(=O)[C@H](Cc2c[nH]c3ccccc23)NC(=O)[C@H](CO)NC(=O)C(C)(C)NC1=O [Example 156] (cyclo([Bip(4'-COOH)][4Pal][Phe(4-COOH)]G[Pro(cis-4-F)][Trp(βS-Me,4-F)][Aib]SW[d(αMeD)][Ala(pyrimidin-5-yl)]QSG[dPro(4R-(4-pyridylmethyl))])) | 0.015
C[C@@H](c1c[nH]c2cccc(F)c12)[C@@H]1NC(=O)[C@@H]2C[C@H](O)CN2C(=O)CNC(=O)[C@H](Cc2ccc(C(=O)O)cc2)NC(=O)[C@H](CC23CC(C2)C3)NC(=O)[C@H](Cc2ccc(-c3ccc(C(=O)O)cc3)cc2)NC(=O)[C@H]2C[C@@H](Cc3ccncc3)CN2C(=O)CNC(=O)[C@H](CO)NC(=O)[C@H](CCC(N)=O)NC(=O)[C@H](Cc2cncnc2)NC(=O)[C@@](C)(CC(=O)O)NC(=O)[C@H](Cc2c[nH]c3ccccc23)NC(=O)[C@H](CO)NC(=O)C(C)(C)NC1=O [Example 157] (cyclo([Bip(4'-COOH)][Ala(1-bicyclo(1.1.1)pentyl)][Phe(4-COOH)]G[cisHyp][Trp(βS-Me,4-F)][Aib]SW[d(αMeD)][Ala(pyrimidin-5-yl)]QSG[dPro(4R-(4-pyridylmethyl))])) | 0.038
C[C@@H](c1c[nH]c2cccc(F)c12)[C@@H]1NC(=O)[C@@H]2C[C@H](F)CN2C(=O)CNC(=O)[C@H](Cc2ccc(C(=O)O)cc2)NC(=O)[C@H](CC23CC(C2)C3)NC(=O)[C@H](Cc2ccc(-c3ccc(C(=O)O)cc3)cc2)NC(=O)[C@H]2C[C@@H](Cc3ccncc3)CN2C(=O)CNC(=O)[C@H](CO)NC(=O)[C@H](CCC(N)=O)NC(=O)[C@H](Cc2cncnc2)NC(=O)[C@@](C)(CC(=O)O)NC(=O)[C@H](Cc2c[nH]c3ccccc23)NC(=O)[C@H](CO)NC(=O)C(C)(C)NC1=O [Example 158] (cyclo([Bip(4'-COOH)][Ala(1-bicyclo(1.1.1)pentyl)][Phe(4-COOH)]G[Pro(cis-4-F)][Trp(βS-Me,4-F)][Aib]SW[d(αMeD)][Ala(pyrimidin-5-yl)]QSG[dPro(4R-(4-pyridylmethyl))])) | 0.013
C[C@@H](c1c[nH]c2cccc(F)c12)[C@@H]1NC(=O)[C@@H]2C[C@H](O)CN2C(=O)CNC(=O)[C@H](Cc2ccc(C(=O)O)cc2)NC(=O)[C@H](Cc2ccncc2)NC(=O)[C@H](Cc2ccc(-c3ccc(C(=O)O)cc3)cc2)NC(=O)[C@H]2C[C@@H](Cc3ccncc3)CN2C(=O)CNC(=O)[C@H](CCN)NC(=O)[C@H](CCC(N)=O)NC(=O)[C@H](Cc2cncnc2)NC(=O)[C@@](C)(CC(=O)O)NC(=O)[C@H](Cc2c[nH]c3ccccc23)NC(=O)[C@H](CO)NC(=O)C(C)(C)NC1=O [Example 159] (cyclo([Bip(4'-COOH)][4Pal][Phe(4-COOH)]G[cisHyp][Trp(βS-Me,4-F)][Aib]SW[d(αMeD)][Ala(pyrimidin-5-yl)]Q[Dab]G[dPro(4R-(4-pyridylmethyl))])) | 0.013
C[C@@H](c1c[nH]c2cccc(F)c12)[C@@H]1NC(=O)[C@@H]2C[C@H](O)CN2C(=O)CNC(=O)[C@H](Cc2ccc(C(=O)O)cc2)NC(=O)[C@H](CC23CC(C2)C3)NC(=O)[C@H](Cc2ccc(-c3ccc(C(=O)O)cc3)cc2)NC(=O)[C@H]2C[C@@H](Cc3ccncc3)CN2C(=O)CNC(=O)[C@H](CCN)NC(=O)[C@H](CCC(N)=O)NC(=O)[C@H](Cc2cncnc2)NC(=O)[C@@](C)(CC(=O)O)NC(=O)[C@H](Cc2c[nH]c3ccccc23)NC(=O)[C@H](CO)NC(=O)C(C)(C)NC1=O [Example 160] (cyclo([Bip(4'-COOH)][Ala(1-bicyclo(1.1.1)pentyl)][Phe(4-COOH)]G[cisHyp][Trp(βS-Me,4-F)][Aib]SW[d(αMeD)][Ala(pyrimidin-5-yl)]Q[Dab]G[dPro(4R-(4-pyridylmethyl))])) | 0.023
